Experimental data published in US8075874B2, “Methods for disinfecting and removing smear layer from tooth surfaces” (Dentsply International, Inc., priority 2002, dated 2011).

Experiments:
[1] = Removal of smear layer from prepared crown preparations (SEM); conditions: saturated cotton pellet left 5 minutes
Experimental: Sound third molars were collected and stored in deionized water. Crown preparations were made following conventionally accepted procedures. The samples were randomly divided into two groups.
After this treatment each preparation was rinsed with copious amounts of distilled water to eliminate the residual effect of sodium hypochlorite.
Group 2: A cotton pellet saturated with ADD solution was left on the crown preparations for 5 minutes. After this treatment each preparation was rinsed with copious amounts of distilled water to eliminate residual ADD.
After irrigation, the crown preparations were split in half using a diamond saw and constant water spray. Half of each sample was placed into a gluteraldehyde solution for 24 h. The fixed specimens were then rinsed twice by a sodium buffered solution (pH 7.2), treated with osmium tetraoxide for one hour, rinsed with ascending concentrations of ethyl alcohol 30%-100%, and then placed in a dessicator for 24 h. Finally, each specimen was mounted on a special button, and coated with 25 μm of gold-palladium (Au—Pd) (Wakabayashi et al., 1995). The presence or absence of smear layer on the walls of each cavity was evaluated. The erosion of dentinal tubules was also assessed.

[2] = system: root canals infected with whole saliva; assay: Disinfection of human root canals infected with whole saliva
From the text: It will be apparent to those of skill in the art that a solution such as the one described herein (i.e., one that has improved biocompatibility and is effective in a shorter period of time than previously known treatments) is highly desirable, particularly in the health care fields. Studies have also shown that, unlike other previously known dental irrigants, the solution of the present invention maintains the desired antimicrobial effect at dilutions up to 1:200. […] In a further study undertaken to evaluate the antimicrobial properties of the presently described solution, human root canals were infected with whole saliva and then treated with either 5.25% NaOCl or a solution of doxycycline, polysorbate 80, and citric acid. While the NaOCl effectively disinfected only 37 out of 60 teeth, the solution of the present invention disinfected 59 out of 60 teeth. The importance and desirability of such improved antimicrobial properties can be easily appreciated, particularly by those of skill in the art.

[3] = Removal of smear layer from root end cavity preparations (SEM); parameters: species or system human; conditions: solution left in cavity five minutes
Experimental: Extracted, human single-rooted teeth were used in this part of the experiment.
The working length of each canal was determined by placing and moving a #15 K file apically in the canal until it exited from the apical foramen.
The access cavities were closed with Cavit. The roots were then wrapped in moist gauze and stored in a closed glass bottle at room temperature and 100% humidity for one week.
Two coats of nail polish were applied to the external surface of each root.
Apical cavity preparations were made in each of the roots. A #1 round bur in a high-speed handpiece with water coolant was used to create a small opening into the gutta-percha filling material.
The roots were then randomly divided into two groups. […] The solution was left in the cavity for five minutes and then rinsed with 10 ml of distilled water. In Group 2, the preparations were rinsed with 5 ml of ADD. This solution was also left in the root end cavities for five minutes and then rinsed with 5 ml of distilled water. After drying with paper points, the roots were split in halves using a slow speed diamond saw (Labut Agar Scientific, Cambridge, England).
Half of each sample was placed into a gluteraldehyde solution for 24 h. […] The presence or absence of smear layer on the root end cavity preparations was evaluated. The erosion of dentinal tubules was also assessed.

[4] = Removal of smear layer from coronal cavity preparations (SEM); conditions: third molars, Class I preparations; solution left 5 minutes
Experimental: Sound third molars were collected and stored in deionized water. Class I preparations were made following conventionally accepted procedures in the occlusal surfaces of the teeth. The teeth were randomly divided into two groups. […] After this treatment each preparation was rinsed with copious amounts of water to eliminate the residual effect of sodium hypochlorite. Group 2: ADD solution was left in the cavity for 5 minutes. After this treatment each preparation was rinsed with copious amounts of distilled water to eliminate the residual effect of ADD. After irrigation, the crowns were split in half using a diamond saw and constant water spray. Half of each sample was placed into a gluteraldehyde solution for 24 h. The fixed specimens were then rinsed twice by a sodium buffered solution (pH 7.2), treated with osmium tetraoxide for one hour, rinsed with ascending concentrations of ethyl alcohol 30%-100%, and then placed in a dessicator for 24 h. […] The presence or absence of smear layer on the walls of each cavity was evaluated. The erosion of dentinal tubules was also assessed.

[5] = Removal of smear layer from root canal walls (SEM); conditions: extracted human teeth; 5 min contact; ADD group instrumented with 1% sodium hypochlorite as irrigant
From the text: Extracted maxillary and mandibular human teeth were used for this study. The working lengths of these teeth were between 21-25 millimeters. The teeth were scaled of any calculus and other surface debris (soft tissue and/or alveolar bone) using hand scalers. After preparing conventional access preparations through the incisal or occlusal surfaces of the test teeth, a K-type file (size 10) was used to determine the working length of each tooth by penetrating the apical foramen and pulling back to the clinical apical foramen. […] The apex of each tooth was enlarged to size 30 files.
After complete cleaning and shaping, the canals were irrigated with 1 ml of NaOCl and a barbed broach wrapped with cotton was taken to the canal terminus and left for five minutes to ensure uniform direct contact of the irrigant with the entire canal. Upon removal of the barbed broach, the canal was irrigated with 4 ml of NaOCl and rinsed with 10 ml of distilled water. Group 2: NSET was performed using 1% sodium hypochlorite as root canal irrigant. […] Upon removal of the barbed broach, the canal was irrigated with 4 ml of ADD and rinsed with 10 ml of distilled water. […] The presence or absence of smear layer at the coronal, middle, and apical portion of each canal was evaluated. The erosion of dentinal tubules was also assessed at different levels of each canal.

[6] = Removal of smear layer from root surfaces of teeth (SEM); conditions: saturated cotton pellet left 5 minutes
Experimental: The coronal one-third root surfaces of these teeth were curetted following conventionally accepted procedures. The samples were randomly divided into two groups.
After this treatment each root surface was rinsed with copious amounts of distilled water to eliminate the residual effect of sodium hypochlorite.
Group 2: A cotton pellet saturated with ADD solution was left on the root surface preparations for 5 minutes. After this treatment each preparation was rinsed with copious amounts of distilled water to eliminate the residual effect of ADD.
After irrigation, the entire tooth was split in half using a diamond saw and constant water spray. Half of each sample was placed into a gluteraldehyde solution for 24 h. The fixed specimens were then rinsed twice by a sodium buffered solution (pH 7.2), treated with osmium tetraoxide for one hour, rinsed with ascending concentrations of ethyl alcohol 30%-100%, and then placed in a dessicator for 24 h. Finally, each specimen was mounted on a special button, and coated with 25 μm of gold-palladium (Au—Pd) (Wakabayashi et al., 1995). The presence or absence of smear layer on the root surfaces was evaluated. The erosion of dentinal tubules was also assessed.

Enterococcus faecalis [7] = assay: Zone of inhibition on inoculated TSA plates; type: cell-based; conditions: E. faecalis; for bactericidal effect upon dilution (zone of inhibition): diluted five- or ten-fold
Experimental: In the first test, the zone of inhibition was measured on plates inoculated with Enterococcus faecalis. An overnight culture of E. faecalis (ATCC 4082) was standardized to 0.11 optical density (O.D.) measured at 570 nm. One hundred microliters of the microorganism was spread onto a trypticase soy agar (TSA) plate with the use of a sterile L-shaped glass rod. One-quarter inch sterile S & S filter paper (Schleicher & Schuell) was placed in each of the four quadrants of the TSA plate. […] Eight replicates were prepared for each of the sample solutions. The plates were incubated overnight at 37° C. for 24 hours and the zones of inhibition were measured in millimeters.

Enterococcus faecalis [8] = assay: Minimum inhibitory concentration (serial dilution, turbidity); type: cell-based
Experimental: In the second test, the minimum inhibitory concentration (MIC) was measured. E. faecalis was cultured overnight and the concentration was adjusted to 0.11 O.D. at 570 nm. The test solutions were serially diluted from 1:2 up to 1:2048 dilutions. One ml of 2× trypticase soy broth (TSB) and the same amount of a test solution were mixed in various tubes. One hundred microliters of the standardized E. faecalis was added into each of the test tubes and were incubated overnight at 37° C. The presence or absence of turbidity was determined the following day.

Row | Compound | presence or absence of smear layer on crown preparations [1] | teeth disinfected [2] | presence or absence of smear layer on root end cavity preparations [3] | presence or absence of smear layer on cavity walls [4] | presence or absence of smear layer on root canal walls [5] | presence or absence of smear layer on root surfaces [6] | bactericidal effect upon dilution (zone of inhibition) (Enterococcus faecalis [7]) | zone of inhibition, undiluted versus diluted (Enterococcus faecalis [7]; undiluted, 1:5, 1:10) | dilution up to which solution is effective (minimum inhibitory concentration test) (Enterococcus faecalis [8]; E. faecalis, overnight at 37° C., turbidity) | dilution limit of antimicrobial / bactericidal effect (Enterococcus faecalis [8]; summary statement in description)
1 | [Na+].[O-]Cl [5.25% NaOCl, sodium hypochlorite] | presence of smear layer on the surface of all crowns | 37 out of 60 | presence of smear layer on the surface of all cavity preparations | presence of smear layer on the walls of all teeth | presence of smear layer on the entire root canal walls of all teeth | presence of smear layer on the surface of all roots | some bactericidal effect | more effective when undiluted than at 1:5 or 1:10 dilution | – | –
2 | O=C(O)CN(CCN(CC(=O)O)CC(=O)O)CC(=O)O [EDTA, ethylenediamine tetraacetic acid] | – | – | – | – | – | – | no bactericidal properties | – | no antibacterial effects at any dilution level | ineffective in anything other than an undiluted state
